Data on three molecules can be found in US4751026A, “Substituted anilides of oleic, linoleic, or linolenic acid as inhibitors of acyl-coa:cholesterol acyltransferase” (Warner-Lambert Company, priority 1987, dated 1988).

pIC50: −log10 of the molar value.

Assay [1] deals with T1, acyl-CoA:cholesterol acyltransferase (ACAT) (Oryctolagus cuniculus, UniProt G1SFD9).
T1 construct: in a tissue preparation containing rabbit intestinal microsomes; from tissue; host or cells: rabbit intestine, microsomes
T1 sequence (G1SFD9 1-524): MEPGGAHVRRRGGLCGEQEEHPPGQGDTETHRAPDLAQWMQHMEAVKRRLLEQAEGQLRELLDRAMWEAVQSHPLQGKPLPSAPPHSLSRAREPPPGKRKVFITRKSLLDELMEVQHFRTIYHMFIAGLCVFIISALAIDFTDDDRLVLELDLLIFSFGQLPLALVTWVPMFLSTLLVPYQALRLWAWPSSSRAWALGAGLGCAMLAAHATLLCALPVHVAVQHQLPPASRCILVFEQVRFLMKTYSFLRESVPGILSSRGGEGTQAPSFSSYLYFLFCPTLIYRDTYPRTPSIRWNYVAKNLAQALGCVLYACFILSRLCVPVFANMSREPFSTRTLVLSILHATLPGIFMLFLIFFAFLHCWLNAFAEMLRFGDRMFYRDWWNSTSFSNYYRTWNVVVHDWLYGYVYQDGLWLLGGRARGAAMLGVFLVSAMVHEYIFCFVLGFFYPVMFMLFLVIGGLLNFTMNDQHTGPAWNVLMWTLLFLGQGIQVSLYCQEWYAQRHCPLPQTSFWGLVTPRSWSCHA
Kind of assay: In vitro inhibition of ACAT: radio-labeled cholesterol oleate formed from radio-labeled oleic acid in rabbit intestinal microsomes. The format is biochemical. Particulars: inhibition of acylation of cholesterol by oleic acid. As for the experimental part:
The ability of representative compounds of the present invention to inhibit ACAT was measured using an in vitro test more fully described in Field, F. J. and Salone, R. G., Biochemica et Biophysica 712: 557-570 (1982). The test assesses the ability of a test compound to inhibit the acylation of cholesterol by oleic acid by measuring the amount of radio-labeled cholesterol oleate formed from radio-labeled oleic acid in a tissue preparation containing rabbit intestinal microsomes.
The data appear in Table 1 where they are expressed as IC50 values; i.e. the concentration of test compound required to inhibit 50% […] of the enzyme.

A further assay relates to Serum LDL Cholesterol. Kind of assay: In vivo serum cholesterol lowering in cholesterol-fed rabbits. On the set-up: species or system Male, New Zealand white rabbits. The following applies: cholesterol-enriched diet, oral 50 mg/kg thirty minutes prior to each meal for seven days, three hours after last meal. From the text:
Male, New Zealand white rabbits weighing approximately 1 kg were fed a normal diet 40 g per day of rabbit chow (Purina No. 5321, Ralston Purina Co., 711 West Fuesser Road, Mascoutah, Ill., 62224, USA). After six days on this diet, the rabbits were fed 50 g per day for three days of a cholsterol-enriched diet consisting of one part of a cholesterol-containing chow (Purina Catalog No. 841206WLI, 0.25% cholesterol) and two parts of normal chow. Next, the rabbits were fed 60 g per day for four days of a cholsterol-enriched diet consisting of two parts of a cholesterol-containing chow (Purina Catalog No. 814206WLI, 0.25% cholesterol) and one part of normal chow.
After this meal adaptation and cholesterol loading period, the test compounds of this invention were administered to the test animals in oral doses of 50 mg/kg of body weight thirty minutes prior to each meal for seven days. Control animals were administered vehicle only.
The animals were sacrificed three hours after their last meal in the postabsorptive state. Serum cholesterol levels were determined for each animal, and the data appear in Table 2 expressed as percent change in serum cholesterol level compared to control.

In turn, `CCCCCCCC/C=C\CCCCCCCC(=O)Nc1c(OC)cc(OC)cc1OC` [(Z)-N-(2,4,6-Trimethoxyphenyl)-9-octadecenamide] had a pIC50 in assay [1] of 7.22. Also, the “Percent Change in Serum LDL Cholesterol From Control” value with Serum LDL Cholesterol was -53%. Molecule `CCCCC/C=C\C/C=C\CCCCCCCC(=O)Nc1c(OC)cc(OC)cc1OC` [(Z,Z)-N-(2,4,6-Trimethoxyphenyl)-9,12-octadecadienamide] had a pIC50 in assay [1] of 7.38. Turning to `CC/C=C\C/C=C\C/C=C\CCCCCCCC(=O)Nc1c(OC)cc(OC)cc1OC` [(Z,Z,Z)-N-(2,4,6-Trimethoxyphenyl)-9,12,15-octadecatrienamide], the pIC50 in assay [1] was 7.07.
